Literature values as cited in patent EP1783518B1, “Functionalized dyes and use thereof in ophthalmic lens material” (Ophtec B.V., priority 2005, dated 2007).
In brackets after ≈: the same amount, converted by molar mass.

solubility in EGME (ethylene glycol monomethyl ether (EGME)) [mg/mL] | solubility in water [mg/mL] | SMILES
80 (≈ 253 mM) | – | Cc1cc(N=Nc2ccc(N=Nc3ccccc3)cc2)ccc1O [Disperse Yellow 7, 4-[[p-(phenylazo)phenyl]azo]-o-cresol]
– | 40 | O=C(O)c1cc(N=Nc2ccc(N=Nc3ccc(S(=O)(=O)[O-])cc3)cc2)ccc1[O-].[Na+].[Na+] [Mordant Orange 6]
– | 40 | Cc1cc(N=Nc2ccc(N=Nc3ccc(S(=O)(=O)O)cc3)cc2)cc(C(=O)O)c1O.[Na+] [Mordant Orange 10]
